Compound: C[C@@]1(C(=O)Nc2ccc(F)nc2)CCCN1c1nc(Nc2cc(C3CC3)n[nH]2)c2cccn2n1 + CC(=O)Nc1cccc(-n2c(=O)n(C3CC3)c(=O)c3c(Nc4ccc(I)cc4F)n(C)c(=O)c(C)c32)c1 [Trametinib] (partner 0.02 µM)
Assay: relative viability (nuclei count vs DMSO), 5 days (fraction); higher = more cells survive
Details: first compound 0.04 µM
Outline: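 Lung cancer cell lines in 1536-well plates were dosed by pin tool the day after seeding, either with one drug alone or with a fixed anchor-drug dose plus five library-drug doses (not always all listed) in √10 steps. After 5 days, cells were fixed and their nuclei stained in one step (final 0.05% Triton X-100, 1% formaldehyde, 1 ug/ml Hoechst), then counted on 4× images. Relative viability is the nuclei count in treated wells divided by that in vehicle wells. Values are medians of duplicate plates.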

| Cell Line | relative viability |
| --- | --- |
| A-427 | 0.644 |
| NCI-H441 | 0.23 |
| NCI-H661 | 0.605 |
| NCI-H1734 | 0.527 |
| NCI-H460 | 0.159 |
| NCI-H2347 | 0.251 |
| SK-LU-1 | 0.45 |
| NCI-H1395 | 1.02 |
| 201T | 0.718 |
| NCI-H1915 | 0.316 |
| HCC-827 | 0.518 |
| LXF-289 | 0.67 |
| NCI-H23 | 0.233 |
| NCI-H647 | 0.465 |
| CAL-12T | 0.333 |
| NCI-H1651 | 0.723 |
| EPLC-272H | 0.266 |
| NCI-H2228 | 0.485 |

| Cell Line | relative viability |
| --- | --- |
| NCI-H1792 | 0.343 |
| NCI-H1355 | 0.36 |
| NCI-H3122 | 0.181 |
| NCI-H1437 | 0.404 |
| NCI-H1755 | 0.661 |
| NCI-H2023 | 0.454 |
| HCC-15 | 0.237 |
| NCI-H1793 | 0.4 |
| PC-14 | 0.765 |
| EKVX | 0.433 |
| LC-2-ad | 0.848 |
| NCI-H1944 | 0.352 |
| NCI-H1975 | 0.272 |
| RERF-LC-KJ | 0.84 |
| NCI-H358 | 0.129 |
| NCI-H650 | 0.867 |
| PC-3 [JPC-3] | 0.628 |

Same assay, conditions: first compound 0.1265 µM

| Cell Line | relative viability |
| --- | --- |
| A-427 | 0.548 |
| NCI-H441 | 0.164 |
| NCI-H661 | 0.55 |
| NCI-H1734 | 0.512 |
| NCI-H460 | 0.0315 |
| NCI-H2347 | 0.289 |
| SK-LU-1 | 0.413 |
| NCI-H1395 | 0.863 |
| 201T | 0.663 |
| NCI-H1915 | 0.261 |
| HCC-827 | 0.499 |
| LXF-289 | 0.619 |
| NCI-H23 | 0.199 |
| NCI-H647 | 0.419 |
| CAL-12T | 0.214 |
| NCI-H1651 | 0.798 |
| EPLC-272H | 0.252 |
| NCI-H2228 | 0.287 |

| Cell Line | relative viability |
| --- | --- |
| NCI-H1792 | 0.188 |
| NCI-H1355 | 0.302 |
| NCI-H3122 | 0.202 |
| NCI-H1437 | 0.3 |
| NCI-H1755 | 0.692 |
| NCI-H2023 | 0.387 |
| HCC-15 | 0.204 |
| NCI-H1793 | 0.355 |
| PC-14 | 0.649 |
| EKVX | 0.227 |
| LC-2-ad | 0.749 |
| NCI-H1944 | 0.363 |
| NCI-H1975 | 0.273 |
| RERF-LC-KJ | 0.665 |
| NCI-H358 | 0.106 |
| NCI-H650 | 0.572 |
| PC-3 [JPC-3] | 0.441 |

Same assay, conditions: first compound 0.4 µM

| Cell Line | relative viability |
| --- | --- |
| A-427 | 0.537 |
| NCI-H441 | 0.21 |
| NCI-H661 | 0.591 |

From the supplement of paper PMC10307832
